In ChEMBL document CHEMBL3817751, “Exploitation of a Novel Binding Pocket in Human Lipoprotein-Associated Phospholipase A2 (Lp-PLA2) Discovered through X-ray Fragment Screening” (J Med Chem, 2016):
In brackets after ≈: the same amount, converted by molar mass.

Assays:
[1] = Inhibition of human recombinant PLA2-7B using 2-thio-PAF as substrate after 20 mins by CPM-based fluorescence assay
[2] = target: T1, Platelet-activating factor acetylhydrolase (Homo sapiens, UniProt Q13093); assay: Inhibition of human recombinant Lp-PLA2 using PED6 as substrate preincubated for 30 mins followed by substrate addition measured for 20 mins by fluorescence assay
T1 sequence (Q13093 whole entry): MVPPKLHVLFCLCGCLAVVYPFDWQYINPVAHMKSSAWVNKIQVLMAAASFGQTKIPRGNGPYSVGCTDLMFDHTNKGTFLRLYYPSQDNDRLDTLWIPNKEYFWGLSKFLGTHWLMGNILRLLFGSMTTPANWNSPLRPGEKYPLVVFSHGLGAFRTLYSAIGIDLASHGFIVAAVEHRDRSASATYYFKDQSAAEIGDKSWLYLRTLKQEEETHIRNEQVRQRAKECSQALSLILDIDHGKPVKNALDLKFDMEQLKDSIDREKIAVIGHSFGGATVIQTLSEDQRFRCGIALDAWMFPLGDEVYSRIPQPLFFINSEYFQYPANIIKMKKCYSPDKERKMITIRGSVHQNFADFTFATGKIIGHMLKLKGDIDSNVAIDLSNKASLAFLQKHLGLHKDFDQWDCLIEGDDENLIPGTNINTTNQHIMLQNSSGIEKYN

[3] = target: T1, Platelet-activating factor acetylhydrolase; assay: Inhibition of human recombinant Lp-PLA2 using 2-thio-PAF as substrate after 20 mins by CPM-based fluorescence assay
[4] = target: T1, Platelet-activating factor acetylhydrolase; assay: Binding affinity to N-terminal His6-tagged Lp-PLA2 (47 to 429 residues) (unknown origin) expressed in sf21 insect cells by ITC assay
[5] = Lipophilicity, log D of the compound at pH 7.4 by reversed phase HPLC method; type: physicochemical; conditions: buffer
[6] = Apparent permeability of the compound after 3 hrs by HPLC-UV method; type: physicochemical; conditions: not told
[7] = Binding affinity to human serum albumin/alpha-1 acidglycoprotein after 6 mins by HPLC method; type: ADME; conditions: human serum albumin/alpha-1 acid glycoprotein, read-out: PB (converted)
[8] = Solubility of the compound in pH 7.4 phosphate buffered saline after 1 hr by chemiluminescent nitrogen detection assay; type: physicochemical
[9] = target: T1, Platelet-activating factor acetylhydrolase; assay: Inhibition of Lp-PLA2 in human whole plasma using 2-thio-PAF as substrate preincubated for 15 mins followed by substrate addition measured after 3 mins by CPM-based fluorescence assay; type: cell-free
[10] = organism: Homo sapiens; assay: Selectivity ratio of IC50 for human recombinant PLA2-7B to IC50 for human recombinant Lp-PLA2

Row | SMILES | IC50 [1] [µM] | IC50 [2] [µM] | IC50 [3] [µM] | IC50 [9] [µM] | also measured
1 | Cc1ccc(N)cc1-c1ccccc1Cl | 43 | 100 | 100 | – | –
2 | O=C(c1cccc(F)c1)N1CC=CC1 | – | 500 | – | – | Kd [4]: 980 µM
3 | Cc1ccccc1-c1cc(C(=O)N2CCCC2)ccc1C | > 100 | – | 30 | – | –
4 | COC(CO)Cn1ccc(Nc2cc(-c3ccccc3C)c(C)cc2OCCN)n1 (racemic) | > 1 | – | 0.0014 | 0.018 | chromatographic logD [5]: 3.2; Papp at 3 h [6]: 13 ×10⁻⁶ cm/s; fraction unbound at 0.1 h [7]: 0.05; solubility at 1 h [8]: 302 µM (≈ 124 µg/mL)
5 | Cc1ccccc1-c1cc(C(=O)c2nccs2)ccc1C | 3.2 | – | 2 | – | –
6 | CC1(C)NC(=O)NC1=O | – | > 1000 | – | – | –
7 | COC(CO)Cc1csc(Nc2ccc(C)c(-c3ccccc3C)c2)n1 (racemic) | > 10 | – | 0.0095 | 0.56 | Ratio IC50 [10]: > 1000
8 | NS(=O)(=O)c1ccccc1 [BENZENESULFONAMIDE] | – | > 1000 | – | – | Kd [4]: 3400 µM
9 | Cc1ccccc1-c1cc(Nc2nccs2)ccc1C | 11 | – | 1.7 | – | –
10 | Cc1ccc(C(=O)N2CC=CC2)cc1-c1ccccc1Cl | > 10 | – | 0.18 | – | –
11 | COc1cc(C)c(-c2ccccc2C)cc1Nc1nc(CC(CO)OC)cs1 (racemic) | 6.1 | – | 0.0036 | 0.32 | –
12 | Cc1ccccc1-c1cc(Nc2nc(CCCO)cs2)ccc1C | > 10 | – | 0.23 | 7.1 | Ratio IC50 [10]: > 40
13 | CCN(CC)CCN(Cc1ccc(-c2ccc(C(F)(F)F)cc2)cc1)C(=O)Cn1c(SCc2ccc(F)cc2)nc(=O)c2c1CCC2 [DARAPLADIB] | 0.063 | – | – | – | chromatographic logD [5]: 6.2; Papp at 3 h [6]: 23 ×10⁻⁶ cm/s; fraction unbound at 0.1 h [7]: 0.02; solubility at 1 h [8]: 8 µM (≈ 5.33 µg/mL)
14 | COC(CO)Cc1csc(Nc2cc(-c3ccccc3C)c(C)cc2OCCN)n1 (racemic) | > 10 | – | 0.0024 | 0.028 | chromatographic logD [5]: 3.4; Papp at 3 h [6]: 21 ×10⁻⁶ cm/s; fraction unbound at 0.1 h [7]: 0.03; solubility at 1 h [8]: 195 µM (≈ 83.4 µg/mL)
15 | Cc1ccccc1-c1cc(C(=O)N2CC=CC2)ccc1C | 89 | – | 0.23 | – | –
16 | CC(C)COc1cc(=O)n(C)c(=O)n1C | – | 1000 | – | – | –
